Laboratory results taken from patent US7285572B2, “CaSR antagonist” (Japan Tobacco Inc., priority 2003, dated 2007).

System: PTH secretion
Test: PTH secretagogue action, oral administration to fasted male SD rats, serum PTH by ELISA
Type: in vivo, rat
Conditions: 3 mg/kg oral, test compound administration group
Experimental: The test compound was orally administered to 5 to 9-week-old male SD rats (Charles River Japan, Inc.) fasted for 20 hr, using a solvent (0.5% aqueous methyl cellulose solution) at a dose of 3 mg/5 ml/kg or 30 mg/5 ml/kg. A solvent alone was orally administered to the control group at a dose of 5 ml/kg. The blood was drawn from the tail vein 15 min, 30 min, 60 min and 120 min after the administration of the test compound, and serum was obtained. The serum PTH concentration was measured using rat PTH ELISA kit (Amersham Biosciences).

Row | Compound | serum PTH concentration 15 min later [pg/mL] | serum PTH concentration 30 min later [pg/mL] | serum PTH concentration 60 min later [pg/mL] | serum PTH concentration 120 min later [pg/mL]
1 | C[C@@H](OC[C@H](O)CNC(C)(C)Cc1ccc2ccccc2c1)c1ccccc1-c1cccc(CC(=O)O)c1 [Example 4, [2′-[(1R)-1-[(2R)-2-hydroxy-3-[[2-methyl-1-(naphthalen-2-yl)propan-2-yl]amino]propoxy]ethyl]biphenyl-3-yl]acetic acid] | 22.71 ± 2.52 | 22.83 ± 2.91 | 13.69 ± 2.09 | 11.76 ± 1.24
2 | C[C@@H](OC[C@H](O)CNC(C)(C)Cc1ccc2ccccc2c1)c1ccccc1CCCCC(=O)O [Example 25] | 19.16 ± 4.05 | 18.15 ± 3.15 | – | –

Same assay, conditions: 30 mg/kg oral, test compound administration group

Row | Compound | serum PTH concentration 30 min later [pg/mL] | serum PTH concentration 60 min later [pg/mL]
3 | Cc1ccccc1[C@H](OC[C@@H](CNC(C)(C)Cc1ccc2ccccc2c1)OC(=O)/C=C\C(=O)O)C1CC1 [Example 6, (Z)-butenedioic acid mono-[(2R)-1-[(1R)-(cyclopropyl)-(2-methylphenyl)methoxy]-3-[[2-methyl-1-(naphthalen-2-yl)propan-2-yl]amino]propan-2-yl]ester] | 14.45 ± 1.45 | 13.91 ± 1.62

Biological target: T1, CYP2D6 (Homo sapiens, UniProt P10635)
T1 construct: purchased BD Bioscience
T1 sequence (P10635 whole entry): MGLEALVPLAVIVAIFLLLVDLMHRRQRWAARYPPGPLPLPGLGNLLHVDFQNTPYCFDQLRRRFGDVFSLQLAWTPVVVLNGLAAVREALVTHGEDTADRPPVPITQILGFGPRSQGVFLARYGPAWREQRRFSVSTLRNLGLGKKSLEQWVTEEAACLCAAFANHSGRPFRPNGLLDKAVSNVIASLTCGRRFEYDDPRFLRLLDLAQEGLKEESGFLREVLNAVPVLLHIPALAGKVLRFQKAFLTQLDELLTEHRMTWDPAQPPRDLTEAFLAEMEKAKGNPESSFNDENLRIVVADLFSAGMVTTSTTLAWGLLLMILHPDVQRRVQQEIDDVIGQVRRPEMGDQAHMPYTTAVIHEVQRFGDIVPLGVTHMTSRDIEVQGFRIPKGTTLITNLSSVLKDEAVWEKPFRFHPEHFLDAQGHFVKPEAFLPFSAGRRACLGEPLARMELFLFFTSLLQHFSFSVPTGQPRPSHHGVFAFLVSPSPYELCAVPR
Test: Metabolic enzyme CYP2D6 inhibitory activity (BD Bioscience kit)
Type: in vitro ADME
Conditions: enzyme activity free of test compound as 100%; read-out: CYP2D6 IC50 (concentration showing 50% inhibition)
Experimental: Metabolic Enzyme CYP2D6 Inhibitory Activity
Using a metabolic enzyme CYP2D6 inhibition measurement kit (BD Bioscience) and following the manual of the kit, the inhibitory activity of the test compound was measured. With the enzyme activity free of the test compound as 100%, the concentration (IC50) showing 50% inhibition was determined. The results are shown in Table 8, wherein “>10” means over 10 μM.

Row | Compound | IC50 [nM]
4 | C[C@@H](OC[C@H](O)CNC(C)(C)Cc1ccc2ccccc2c1)c1ccccc1-c1ccc(P(=O)(O)O)cc1 [Example 12, Disodium [2′-[(1R)-1-[(2R)-2-hydroxy-3-[[2-methyl-1-(naphthalen-2-yl)propan-2-yl]amino]propoxy]ethyl]biphenyl-4-yl]phosphonate] | > 10000

Biological target: T2, human calcium receptor (Homo sapiens, UniProt P41180)
T2 construct: expressed in transfected cells; host or cells: cell strain derived from rat adrenal, co-transfected with luciferase cDNA
T2 sequence (P41180 20-1078): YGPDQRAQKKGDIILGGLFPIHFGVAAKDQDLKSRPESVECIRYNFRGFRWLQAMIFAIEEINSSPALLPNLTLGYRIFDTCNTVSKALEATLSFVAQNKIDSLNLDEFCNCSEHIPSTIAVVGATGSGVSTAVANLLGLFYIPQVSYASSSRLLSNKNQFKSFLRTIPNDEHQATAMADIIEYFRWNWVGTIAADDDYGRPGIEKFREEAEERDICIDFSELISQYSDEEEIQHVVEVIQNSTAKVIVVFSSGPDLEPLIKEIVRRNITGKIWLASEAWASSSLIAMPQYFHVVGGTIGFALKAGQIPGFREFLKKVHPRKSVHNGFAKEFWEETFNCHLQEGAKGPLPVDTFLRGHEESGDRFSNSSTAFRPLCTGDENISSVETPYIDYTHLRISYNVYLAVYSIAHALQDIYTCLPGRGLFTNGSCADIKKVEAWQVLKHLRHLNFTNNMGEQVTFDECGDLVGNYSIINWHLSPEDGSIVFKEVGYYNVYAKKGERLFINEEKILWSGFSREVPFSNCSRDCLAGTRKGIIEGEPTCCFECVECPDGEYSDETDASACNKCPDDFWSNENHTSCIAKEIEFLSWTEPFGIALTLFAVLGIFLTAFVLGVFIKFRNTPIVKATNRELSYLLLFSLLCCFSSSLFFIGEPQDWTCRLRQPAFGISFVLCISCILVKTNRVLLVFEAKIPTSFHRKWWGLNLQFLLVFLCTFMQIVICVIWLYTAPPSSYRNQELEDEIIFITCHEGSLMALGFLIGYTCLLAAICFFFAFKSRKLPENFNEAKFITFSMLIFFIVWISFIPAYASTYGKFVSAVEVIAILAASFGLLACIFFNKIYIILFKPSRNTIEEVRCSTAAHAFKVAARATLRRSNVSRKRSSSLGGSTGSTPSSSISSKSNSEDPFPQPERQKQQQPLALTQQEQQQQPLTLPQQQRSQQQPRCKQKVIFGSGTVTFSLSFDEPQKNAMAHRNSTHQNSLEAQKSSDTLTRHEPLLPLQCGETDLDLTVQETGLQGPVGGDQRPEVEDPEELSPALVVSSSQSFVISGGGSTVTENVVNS
Test: Evaluation of antagonistic action on calcium receptor using reporter gene (luciferase)
Type: cell-based
Conditions: rat adrenal derived cells with luciferase and human calcium receptor cDNA, 5 mM calcium chloride, 4 hrs; read-out: IC50 (concentration showing 50% inhibitory rate of luciferase activity)
Experimental: Evaluation of Antagonistic Action on Calcium Receptor Using Reporter Gene
Luciferase cDNA and human calcium receptor cDNA were introduced into a cell strain derived from rat adrenal to transform the cells, and the transformed cells were cultured in a medium (80 μl, F12 medium containing 0.5% dialyzed horse serum and 0.25% dialyzed bovine fetal serum). A dimethyl sulfoxide solution containing a test compound at 0.1-10000 μM was diluted 100-fold with the medium and added to the test compound group at 10 μl per well (final concentration of dimethyl sulfoxide is 0.1%). In the same manner as in test compound group, dimethyl sulfoxide diluted 100-fold with medium was added to a control group and a blank group. Then, 50 mM calcium chloride-containing medium was added to every well except the blank group at 10 μl per well (final concentration is 5 mM). A medium alone was added to the blank group. After culture for 4 hrs, luciferase substrate was added and the luciferase activity was measured with a photoluminometer. The inhibitory rate (%) was calculated from the obtained measured values according to the following formula.
Based on the results, the concentration (IC50) showing 50% inhibitory rate was determined.

Row | Compound | IC50 [nM]
5 | C[C@@H](OC[C@H](O)CNC(C)(C)Cc1ccc2ccccc2c1)c1ccccc1CCCCCC(=O)O [Example 2, 6-[2-[(1R)-1-[(2R)-2-hydroxy-3-[[2-methyl-1-(naphthalen-2-yl)propan-2-yl]amino]propoxy]ethyl]phenyl]hexanoic acid] | 14
6 | CC(C)(Cc1ccc2ccccc2c1)NC[C@@H](O)COC(C1CC1)C1CC1 [Example 3, (2R)-1-dicyclopropylmethoxy-3-[[2-methyl-1-(naphthalen-2-yl)propan-2-yl]amino]propan-2-ol] | 23
7 | C[C@@H](OC[C@H](O)CNC(C)(C)Cc1ccc2ccccc2c1)c1ccccc1-c1cccc(CC(=O)O)c1 [Example 4, [2′-[(1R)-1-[(2R)-2-hydroxy-3-[[2-methyl-1-(naphthalen-2-yl)propan-2-yl]amino]propoxy]ethyl]biphenyl-3-yl]acetic acid] | 11
8 | CC(=O)NCc1ccc(-c2ccccc2[C@@H](C)OC[C@H](O)CNC(C)(C)Cc2ccc3ccccc3c2)cc1 [Example 5, N-[[2′-[(1R)-1-[(2R)-2-hydroxy-3-[[2-methyl-1-(naphthalen-2-yl)propan-2-yl]amino]propoxy]ethyl]biphenyl-4-yl]methyl]acetamide] | 24
9 | Cc1ccccc1[C@H](OC[C@@H](CNC(C)(C)Cc1ccc2ccccc2c1)OC(=O)/C=C\C(=O)O)C1CC1 [Example 6, (Z)-butenedioic acid mono-[(2R)-1-[(1R)-(cyclopropyl)-(2-methylphenyl)methoxy]-3-[[2-methyl-1-(naphthalen-2-yl)propan-2-yl]amino]propan-2-yl]ester] | 79
10 | CC(OC[C@H](O)CNC(C)(C)Cc1ccc2ccccc2c1)c1ccccc1-c1ccc(-c2nnn[nH]2)cc1 (stereo partly drawn) [Example 7, (R)-3-[[2-methyl-1-(naphthalen-2-yl)propan-2-yl]amino]-1-[1-[4′-(1H-tetrazol-5-yl)biphenyl-2-yl]ethoxy]propan-2-ol] | 11
11 | CC(OC(=O)OC1CCCCC1)OC(=O)c1ccc(-c2ccccc2C(C)OC[C@H](O)CNC(C)(C)Cc2ccc3ccccc3c2)cc1 (stereo partly drawn) [Example 8, 1-(cyclohexyloxycarbonyloxy)ethyl 2′-[1-[(2R)-2-hydroxy-3-[[2-methyl-1-(naphthalen-2-yl)propan-2-yl]amino]propoxy]ethyl]biphenyl-4-carboxylate] | 21
12 | CC(OC[C@H](O)CNC(C)(C)Cc1ccc2ccccc2c1)c1ccccc1-c1ccc(C(=O)O)s1 (stereo partly drawn) [Example 9, 5-[2-[1-[(2R)-2-hydroxy-3-[[2-methyl-1-(naphthalen-2-yl)propan-2-yl]amino]propoxy]ethyl]phenyl]thiophene-2-carboxylic acid] | 14
13 | CC(OC[C@H](O)CNC(C)(C)Cc1ccc2ccccc2c1)c1ccccc1C#CC(=O)O (stereo partly drawn) [Example 10, [2-[1-[(2R)-2-hydroxy-3-[[2-methyl-1-(naphthalen-2-yl)propan-2-yl]amino]propoxy]ethyl]phenyl]propynoic acid] | 23
14 | CCOP(=O)(O)c1ccc(-c2ccccc2[C@@H](C)OC[C@H](O)CNC(C)(C)Cc2ccc3ccccc3c2)cc1 [Example 11, Monoethyl [2′-[(1R)-1-[(2R)-2-hydroxy-3-[[2-methyl-1-(naphthalen-2-yl)propan-2-yl]amino]propoxy]ethyl]biphenyl-4-yl]phosphonate] | 8
15 | C[C@@H](OC[C@H](O)CNC(C)(C)Cc1ccc2ccccc2c1)c1ccccc1-c1ccc(P(=O)(O)O)cc1 [Example 12, Disodium [2′-[(1R)-1-[(2R)-2-hydroxy-3-[[2-methyl-1-(naphthalen-2-yl)propan-2-yl]amino]propoxy]ethyl]biphenyl-4-yl]phosphonate] | 29
16 | CCOC(=O)Cc1ccc(-c2ccccc2C(C)OC[C@H](O)CNC(C)(C)Cc2ccc3ccccc3c2)cc1 (stereo partly drawn) [Example 13] | 160
17 | CC(OC[C@H](O)CNC(C)(C)Cc1ccc2ccccc2c1)c1ccccc1-c1ccc(CC(=O)O)cc1 (stereo partly drawn) [Example 14] | 119
18 | CC(OC[C@H](O)CNC(C)(C)Cc1ccc2ccccc2c1)c1ccccc1-c1ccc(CC(N)=O)cc1 (stereo partly drawn) [Example 15] | 145
19 | CC(OC[C@H](O)CNC(C)(C)Cc1ccc2ccccc2c1)c1ccccc1-c1ccc(-c2nsc(=O)[nH]2)cc1 (stereo partly drawn) [Example 16] | 135
20 | C[C@@H](OC[C@H](O)CNC(C)(C)Cc1ccc2ccccc2c1)c1ccccc1-c1ccc(C(=O)NO)cc1 [Example 17] | 104
21 | CC(OC[C@H](O)CNC(C)(C)Cc1ccc2ccccc2c1)c1ccccc1-c1ccc(-c2nc(=O)o[nH]2)cc1 (stereo partly drawn) [Example 19] | 18
22 | CC(OC[C@H](O)CNC(C)(C)Cc1ccc2ccccc2c1)c1ccccc1-c1ccc(C(N)=O)cc1 (stereo partly drawn) [Example 20] | 30
23 | CCOP(=O)(O)c1ccc(-c2ccccc2C(C)OC[C@H](O)CNC(C)(C)Cc2ccc3ccccc3c2)cc1 (stereo partly drawn) [Example 21] | 15
24 | CC(OC[C@H](O)CNC(C)(C)Cc1ccc2ccccc2c1)c1ccccc1OCC(=O)O (stereo partly drawn) [Example 22] | 237
25 | C[C@@H](OC[C@H](O)CNC(C)(C)Cc1ccc2ccccc2c1)c1ccccc1/C=C/C(=O)O [Example 23] | 16
26 | C[C@@H](OC[C@H](O)CNC(C)(C)Cc1ccc2ccccc2c1)c1ccccc1OCCCC(=O)O [Example 24] | 246
27 | C[C@@H](OC[C@H](O)CNC(C)(C)Cc1ccc2ccccc2c1)c1ccccc1CCCCC(=O)O [Example 25] | 18
28 | CC(OC[C@H](O)CNC(C)(C)Cc1ccc2ccccc2c1)c1ccccc1OCCCCC(=O)O (stereo partly drawn) [Example 26] | 190
29 | C=Cc1ccc(CC(C)(C)NC[C@@H](O)CO[C@H](C)c2ccccc2-c2ccc(C(=O)O)cc2)cc1 [Example 27] | 14
30 | C[C@@H](OC[C@H](O)CNC(C)(C)Cc1ccc2ccccc2c1)c1ccccc1-c1ccc([N+](=O)[O-])cc1 [Example 28] | 254
31 | C[C@@H](OC[C@H](O)CNC(C)(C)Cc1ccc2ccccc2c1)c1ccccc1-c1ccc(N)cc1 [Example 29] | 55
32 | Cc1ccc(CC(C)(C)NC[C@@H](O)CO[C@H](C)c2ccccc2OCc2ccc(C(=O)O)s2)cc1F [Example 30] | 183

System: PTH release
Test: not given
Conditions: rat PTH (1-34) 5 μg/kg, OVX rat; cited from earlier work

Row | Compound | blood PTH concentration peak in 30 minutes | time for blood PTH concentration to return to the original level [h]
33 | rat PTH (1-34): rat parathyroid hormone fragment (1-34) administered to OVX rat | about 175 pg/ml | 2
